In ChEMBL document CHEMBL5729705, “Amide compounds for treatment of immune and inflammatory disorders” (2023):
pIC50: −log10 of the molar value.

Molecular target: Complement factor D (Homo sapiens, UniProt P00746)
Assay: Human Factor D Assay: Human Factor D (purified from human serum, Complement Technology, Inc.) at 80 nM final concentration is incubated with test compound at various concentrations for 5 minutes at room temperature in 50 mM Tris, 1M NaCl, pH 7.5. A synthetic substrate Z-L-Lys-SBzl and DTNB (Ellman's reagent) are added to final concentrations of 100 μM each. Absorbance at 405 nm (A405) is recorded at 30 second intervals for 30 minutes using a microplate spectrophotometer. IC50values are calculated by nonlinear regression of complement Factor D reaction rates as a function of test compound concentration.

Chain of Complement factor D (P00746 whole entry): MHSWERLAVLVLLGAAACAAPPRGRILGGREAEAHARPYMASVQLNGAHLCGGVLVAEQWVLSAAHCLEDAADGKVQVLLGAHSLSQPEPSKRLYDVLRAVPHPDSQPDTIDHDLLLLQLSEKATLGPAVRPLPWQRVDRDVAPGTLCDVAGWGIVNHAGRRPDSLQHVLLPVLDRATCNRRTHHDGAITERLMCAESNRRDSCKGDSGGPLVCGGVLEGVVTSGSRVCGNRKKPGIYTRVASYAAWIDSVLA

Structure (SMILES) | pIC50
Cc1cccc(CC(O)[C@H]2C[C@@H](F)CN2C(=O)Cn2cc(C(N)=O)c3cc(C(=O)NS(=O)(=O)C4CC4)ccc32)n1 (some centres not stated) | < 5.00
Cc1cccc(CC(O)[C@@H]2C[C@@H](F)CN2C(=O)Cn2cc(C(N)=O)c3cc(C(=O)NS(=O)(=O)C4CC4)ccc32)n1 (some centres not stated) | < 5.00
